Assay results taken from ChEMBL document CHEMBL1201862, “PubChem BioAssay data set” (2004).
The source made the active and inactive calls.

Columns and labels:
[1] = biological target: T1, Histone-lysine N-methyltransferase NSD2 (Homo sapiens, UniProt O96028); format: biochemical
T1 sequence (O96028 whole entry): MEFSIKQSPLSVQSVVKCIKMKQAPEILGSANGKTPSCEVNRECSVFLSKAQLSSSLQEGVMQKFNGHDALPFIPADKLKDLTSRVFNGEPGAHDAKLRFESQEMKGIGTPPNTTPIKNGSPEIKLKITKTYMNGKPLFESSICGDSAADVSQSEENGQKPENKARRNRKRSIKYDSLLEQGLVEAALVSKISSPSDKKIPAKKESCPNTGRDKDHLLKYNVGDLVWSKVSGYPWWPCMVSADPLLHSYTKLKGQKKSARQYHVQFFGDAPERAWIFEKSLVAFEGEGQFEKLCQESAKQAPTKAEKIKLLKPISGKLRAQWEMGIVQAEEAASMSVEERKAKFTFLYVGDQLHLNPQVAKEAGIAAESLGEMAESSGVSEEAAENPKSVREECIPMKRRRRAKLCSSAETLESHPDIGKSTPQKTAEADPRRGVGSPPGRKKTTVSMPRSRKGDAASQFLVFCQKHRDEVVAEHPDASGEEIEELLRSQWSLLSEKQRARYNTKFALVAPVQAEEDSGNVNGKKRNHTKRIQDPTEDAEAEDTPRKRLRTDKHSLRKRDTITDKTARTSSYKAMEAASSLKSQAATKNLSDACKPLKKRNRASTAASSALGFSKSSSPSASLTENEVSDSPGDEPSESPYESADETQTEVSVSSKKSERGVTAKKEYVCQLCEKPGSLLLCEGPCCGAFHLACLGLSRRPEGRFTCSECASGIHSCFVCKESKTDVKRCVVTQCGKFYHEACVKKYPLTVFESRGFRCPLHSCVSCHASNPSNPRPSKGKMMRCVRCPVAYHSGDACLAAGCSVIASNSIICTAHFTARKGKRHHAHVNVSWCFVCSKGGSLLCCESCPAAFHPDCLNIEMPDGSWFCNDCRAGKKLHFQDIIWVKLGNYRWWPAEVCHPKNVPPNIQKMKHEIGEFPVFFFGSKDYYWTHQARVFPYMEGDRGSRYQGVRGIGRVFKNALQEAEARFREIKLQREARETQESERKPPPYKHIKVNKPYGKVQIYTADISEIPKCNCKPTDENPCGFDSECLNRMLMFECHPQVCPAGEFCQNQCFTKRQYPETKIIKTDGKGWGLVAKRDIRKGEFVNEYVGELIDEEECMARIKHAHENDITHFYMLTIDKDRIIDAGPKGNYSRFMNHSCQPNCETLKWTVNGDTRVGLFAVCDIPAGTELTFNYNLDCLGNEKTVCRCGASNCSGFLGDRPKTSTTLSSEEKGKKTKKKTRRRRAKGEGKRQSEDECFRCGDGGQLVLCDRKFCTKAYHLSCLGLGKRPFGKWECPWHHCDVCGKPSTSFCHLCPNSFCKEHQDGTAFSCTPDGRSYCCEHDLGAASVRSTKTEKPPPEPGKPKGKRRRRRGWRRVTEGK

Cytochrome P450 2D6 = Cytochrome P450 2D6 (Homo sapiens, UniProt P10635); assay: qHTS Assay for Inhibitors and Substrates of Cytochrome P450 2D6. [Related pubchem assays: 410 ]; format: ADME; details: read-out: Potency
Cytochrome P450 3A4 = Cytochrome P450 3A4 (Homo sapiens, UniProt P08684); details: Potency;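 also: confirmatory qHTS run detecting inhibitors and substrates of CYP3A4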
[2] = biological target: Voltage-dependent T-type calcium channel subunit alpha-1H (Homo sapiens, UniProt O95180); format: functional;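 also: channel activity triggered by adding a high calcium stimulation buffer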
[3] = HEp-2 cell cytotoxicity, dose response, cytotoxicity control for RSV inhibitor project, HTS (AID 2410); format: functional; details: human respiratory syncytial virus
Aminopeptidase N = biological target: T2, Aminopeptidase N (Plasmodium falciparum FcB1/Columbia, UniProt O96935); assay: P. falciparum M1AAP inhibitors, biochemical, fluorogenic H-Leu-NHMec substrate, 1536-well (AID 1445); parameters: species or system Plasmodium falciparum 3D7, 3D7
T2 sequence (O96935 whole entry): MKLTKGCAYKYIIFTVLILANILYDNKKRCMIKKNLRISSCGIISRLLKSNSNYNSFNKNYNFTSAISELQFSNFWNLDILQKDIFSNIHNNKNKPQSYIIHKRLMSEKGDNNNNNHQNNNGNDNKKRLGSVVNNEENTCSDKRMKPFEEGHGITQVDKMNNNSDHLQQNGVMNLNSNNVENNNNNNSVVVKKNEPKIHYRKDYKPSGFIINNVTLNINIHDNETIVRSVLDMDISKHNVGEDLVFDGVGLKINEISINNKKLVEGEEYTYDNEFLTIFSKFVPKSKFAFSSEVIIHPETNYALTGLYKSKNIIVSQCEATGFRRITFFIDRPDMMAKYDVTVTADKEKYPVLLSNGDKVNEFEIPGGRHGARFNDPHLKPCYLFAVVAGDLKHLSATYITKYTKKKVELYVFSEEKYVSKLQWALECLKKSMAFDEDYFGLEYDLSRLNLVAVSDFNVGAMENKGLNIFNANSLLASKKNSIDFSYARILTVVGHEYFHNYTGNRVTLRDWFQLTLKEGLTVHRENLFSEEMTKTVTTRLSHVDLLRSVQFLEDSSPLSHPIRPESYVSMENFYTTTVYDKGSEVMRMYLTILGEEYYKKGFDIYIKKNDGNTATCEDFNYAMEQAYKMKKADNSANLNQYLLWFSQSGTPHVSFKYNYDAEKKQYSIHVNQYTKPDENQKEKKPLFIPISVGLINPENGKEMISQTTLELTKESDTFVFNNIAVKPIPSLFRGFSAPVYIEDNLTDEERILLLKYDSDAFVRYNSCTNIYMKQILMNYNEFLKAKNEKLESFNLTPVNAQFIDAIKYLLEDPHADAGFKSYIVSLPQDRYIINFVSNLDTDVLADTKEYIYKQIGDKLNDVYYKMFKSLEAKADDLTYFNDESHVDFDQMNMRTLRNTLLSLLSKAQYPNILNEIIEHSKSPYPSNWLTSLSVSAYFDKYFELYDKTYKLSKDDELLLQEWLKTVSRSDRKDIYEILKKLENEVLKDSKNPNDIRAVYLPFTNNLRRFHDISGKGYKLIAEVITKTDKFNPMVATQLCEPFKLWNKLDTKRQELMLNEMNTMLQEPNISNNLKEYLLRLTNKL

Leucine aminopeptidase = biological target: T3, Leucine aminopeptidase (Plasmodium falciparum 3D7, UniProt Q8IL11); assay: P. falciparum M17LAP inhibitors, primary screen, biochemical, fluorogenic H-Leu-NHMec substrate, 1536-well (AID 1619); format: functional
T3 sequence (Q8IL11 whole entry): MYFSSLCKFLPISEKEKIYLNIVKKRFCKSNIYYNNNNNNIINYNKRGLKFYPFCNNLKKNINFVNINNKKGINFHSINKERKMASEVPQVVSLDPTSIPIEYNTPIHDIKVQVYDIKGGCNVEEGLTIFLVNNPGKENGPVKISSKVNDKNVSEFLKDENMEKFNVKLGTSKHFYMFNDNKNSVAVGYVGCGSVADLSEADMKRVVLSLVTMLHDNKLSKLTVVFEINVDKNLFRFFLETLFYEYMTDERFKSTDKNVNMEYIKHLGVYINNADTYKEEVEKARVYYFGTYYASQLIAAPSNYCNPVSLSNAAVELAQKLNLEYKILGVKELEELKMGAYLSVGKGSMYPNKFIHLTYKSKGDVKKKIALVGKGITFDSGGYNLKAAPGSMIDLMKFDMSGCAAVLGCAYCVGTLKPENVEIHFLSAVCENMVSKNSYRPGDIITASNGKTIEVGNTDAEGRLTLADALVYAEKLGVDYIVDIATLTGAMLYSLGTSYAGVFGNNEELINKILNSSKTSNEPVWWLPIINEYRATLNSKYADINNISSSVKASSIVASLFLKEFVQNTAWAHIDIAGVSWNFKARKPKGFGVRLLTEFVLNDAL

[4] = biological target: Luciferin 4-monooxygenase (Photinus pyralis, UniProt P08659); assay: firefly luciferase enzyme inhibitors, dose response, biochemical, luminescence (AID 1891)
[5] = Luminescence Cell-Based Dose Confirmation HTS to Identify Inhibitors of Platelet Dense Granule Release. [Related pubchem assays: 1663 (Primary HTS), 1678 (Summary of Project)]; format: functional
[6] = biological target: FAD-linked sulfhydryl oxidase ALR (Homo sapiens, UniProt P55789); assay: inhibitors of human ALR sulfhydryl oxidase, dose response, biochemical, H2O2 detection, luminescence, cherry-pick (AID 493248)
Large T antigen = Large T antigen (Simian virus 40, UniProt P03070); format: functional, Betapolyomavirus macacae;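 also: Confirmatory-stage PubChem screen for compounds that inhibit SV40 T antigen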
[7] = HEK293T cytotoxicity, dose response, cytotoxicity control for miR-122 modulator project, cell-based, inhibitor set, cherry-pick, set 2 (AID 720697); format: functional
[8] = inhibitors of firefly luciferase expression or activity, dose response, H4 neuroglioma cells, luminescence (AID 1990); format: functional, cell-based
[9] = Luminescence Cell-Based Dose Response HTS to Identify Inhibitors of 5'UTR Stem-Loop Driven Prion Protein mRNA Translation in H4 Neuroglioblastoma Cells. [Related pubchem assays: 1827 (Project Summary), 1813 (Primary HTS)]; format: functional
[10] = inhibitors of SNCA 5'UTR-driven reporter translation, confirmation, H4 neuroglioma cells, luminescence (AID 1988); format: functional, cell-based
[11] = biological target: Dual specificity tyrosine-phosphorylation-regulated kinase 1A (Rattus norvegicus, UniProt Q63470); format: biochemical, Homo sapiens
Caspase-6 = biological target: T4, Caspase-6 (Homo sapiens, UniProt P55212); assay: human caspase-6 inhibitors, dose response, biochemical, VEID-R110 fluorescence, cherry-pick (AID 720632)
T4 sequence (P55212 whole entry): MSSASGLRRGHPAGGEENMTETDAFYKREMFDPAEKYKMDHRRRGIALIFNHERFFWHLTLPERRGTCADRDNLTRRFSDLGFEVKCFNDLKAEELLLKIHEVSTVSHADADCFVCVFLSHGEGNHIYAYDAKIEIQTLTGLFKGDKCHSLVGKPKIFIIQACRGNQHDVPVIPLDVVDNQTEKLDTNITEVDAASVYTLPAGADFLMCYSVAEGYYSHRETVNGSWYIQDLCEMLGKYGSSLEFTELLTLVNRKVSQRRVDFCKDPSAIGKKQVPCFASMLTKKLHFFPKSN

Sequence of Voltage-dependent T-type calcium channel subunit alpha-1H (O95180 whole entry): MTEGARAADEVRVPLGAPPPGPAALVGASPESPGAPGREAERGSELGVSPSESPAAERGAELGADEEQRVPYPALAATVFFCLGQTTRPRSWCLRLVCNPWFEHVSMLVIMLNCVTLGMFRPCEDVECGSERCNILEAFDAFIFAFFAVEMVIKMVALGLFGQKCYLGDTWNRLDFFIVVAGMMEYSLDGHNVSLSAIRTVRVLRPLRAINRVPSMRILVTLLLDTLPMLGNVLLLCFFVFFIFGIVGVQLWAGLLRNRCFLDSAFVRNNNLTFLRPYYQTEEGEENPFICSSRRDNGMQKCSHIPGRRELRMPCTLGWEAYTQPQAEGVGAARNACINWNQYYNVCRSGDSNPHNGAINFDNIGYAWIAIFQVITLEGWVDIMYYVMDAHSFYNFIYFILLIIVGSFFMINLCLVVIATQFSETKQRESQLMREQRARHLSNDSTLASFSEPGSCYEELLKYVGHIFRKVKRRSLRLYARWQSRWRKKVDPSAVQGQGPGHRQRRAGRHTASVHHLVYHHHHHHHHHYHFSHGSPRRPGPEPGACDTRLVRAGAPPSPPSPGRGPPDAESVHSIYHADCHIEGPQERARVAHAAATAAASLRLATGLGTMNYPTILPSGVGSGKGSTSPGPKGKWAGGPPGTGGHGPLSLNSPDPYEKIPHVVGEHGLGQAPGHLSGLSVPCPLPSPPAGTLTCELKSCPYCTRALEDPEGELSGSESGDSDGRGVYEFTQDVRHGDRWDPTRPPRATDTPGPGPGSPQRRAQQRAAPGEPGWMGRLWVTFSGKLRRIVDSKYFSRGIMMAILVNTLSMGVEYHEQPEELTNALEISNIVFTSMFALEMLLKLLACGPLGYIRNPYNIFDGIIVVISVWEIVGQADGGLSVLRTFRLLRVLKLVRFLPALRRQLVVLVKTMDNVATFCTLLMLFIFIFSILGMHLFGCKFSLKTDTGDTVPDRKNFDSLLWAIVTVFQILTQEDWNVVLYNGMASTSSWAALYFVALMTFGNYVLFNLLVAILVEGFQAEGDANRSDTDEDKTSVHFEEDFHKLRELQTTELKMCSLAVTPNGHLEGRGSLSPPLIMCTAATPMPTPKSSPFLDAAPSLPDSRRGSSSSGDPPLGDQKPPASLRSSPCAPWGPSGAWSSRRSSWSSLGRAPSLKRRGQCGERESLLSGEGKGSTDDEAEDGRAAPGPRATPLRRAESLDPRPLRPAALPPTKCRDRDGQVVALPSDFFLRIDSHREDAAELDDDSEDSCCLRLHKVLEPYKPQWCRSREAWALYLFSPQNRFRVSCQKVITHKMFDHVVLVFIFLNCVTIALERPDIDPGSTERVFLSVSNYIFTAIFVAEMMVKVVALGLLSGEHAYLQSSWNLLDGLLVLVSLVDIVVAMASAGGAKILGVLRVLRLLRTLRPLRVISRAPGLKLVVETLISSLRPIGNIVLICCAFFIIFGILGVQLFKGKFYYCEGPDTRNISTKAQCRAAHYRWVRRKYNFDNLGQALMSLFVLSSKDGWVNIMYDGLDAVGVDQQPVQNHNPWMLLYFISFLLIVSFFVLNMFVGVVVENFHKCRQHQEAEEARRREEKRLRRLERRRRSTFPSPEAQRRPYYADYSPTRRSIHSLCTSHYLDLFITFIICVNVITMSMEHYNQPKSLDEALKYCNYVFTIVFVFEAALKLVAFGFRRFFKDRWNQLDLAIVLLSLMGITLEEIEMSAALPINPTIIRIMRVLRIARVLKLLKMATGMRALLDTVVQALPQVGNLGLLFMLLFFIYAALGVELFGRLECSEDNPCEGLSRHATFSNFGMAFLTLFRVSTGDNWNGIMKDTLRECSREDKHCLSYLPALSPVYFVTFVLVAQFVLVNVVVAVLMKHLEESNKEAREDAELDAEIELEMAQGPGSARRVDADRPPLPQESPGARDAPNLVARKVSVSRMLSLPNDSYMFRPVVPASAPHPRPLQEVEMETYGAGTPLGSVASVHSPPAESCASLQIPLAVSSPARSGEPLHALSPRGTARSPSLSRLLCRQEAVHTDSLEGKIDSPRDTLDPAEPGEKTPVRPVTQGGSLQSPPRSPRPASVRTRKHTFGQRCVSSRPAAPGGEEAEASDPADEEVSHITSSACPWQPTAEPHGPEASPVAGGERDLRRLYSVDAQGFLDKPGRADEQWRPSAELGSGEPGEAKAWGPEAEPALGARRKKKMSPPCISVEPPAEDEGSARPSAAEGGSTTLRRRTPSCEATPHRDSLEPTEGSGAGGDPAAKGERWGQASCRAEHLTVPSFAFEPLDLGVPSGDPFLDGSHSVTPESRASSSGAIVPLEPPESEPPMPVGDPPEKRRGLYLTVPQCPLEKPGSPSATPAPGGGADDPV
Sequence of Cytochrome P450 2D6 (P10635 whole entry): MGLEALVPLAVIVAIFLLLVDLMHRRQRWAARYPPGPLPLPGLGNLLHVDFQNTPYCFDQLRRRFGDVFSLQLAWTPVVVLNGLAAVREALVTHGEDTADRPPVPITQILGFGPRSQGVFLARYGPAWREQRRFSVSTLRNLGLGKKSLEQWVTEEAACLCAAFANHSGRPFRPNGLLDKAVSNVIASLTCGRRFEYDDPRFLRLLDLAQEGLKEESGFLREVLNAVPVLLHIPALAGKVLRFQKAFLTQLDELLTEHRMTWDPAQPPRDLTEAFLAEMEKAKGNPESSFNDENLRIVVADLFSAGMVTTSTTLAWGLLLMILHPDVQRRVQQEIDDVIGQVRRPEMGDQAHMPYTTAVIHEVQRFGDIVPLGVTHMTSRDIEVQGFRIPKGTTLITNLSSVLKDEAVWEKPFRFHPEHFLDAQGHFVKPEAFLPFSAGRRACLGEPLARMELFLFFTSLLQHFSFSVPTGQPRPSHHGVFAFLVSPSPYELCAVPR
Sequence of Luciferin 4-monooxygenase (P08659 whole entry): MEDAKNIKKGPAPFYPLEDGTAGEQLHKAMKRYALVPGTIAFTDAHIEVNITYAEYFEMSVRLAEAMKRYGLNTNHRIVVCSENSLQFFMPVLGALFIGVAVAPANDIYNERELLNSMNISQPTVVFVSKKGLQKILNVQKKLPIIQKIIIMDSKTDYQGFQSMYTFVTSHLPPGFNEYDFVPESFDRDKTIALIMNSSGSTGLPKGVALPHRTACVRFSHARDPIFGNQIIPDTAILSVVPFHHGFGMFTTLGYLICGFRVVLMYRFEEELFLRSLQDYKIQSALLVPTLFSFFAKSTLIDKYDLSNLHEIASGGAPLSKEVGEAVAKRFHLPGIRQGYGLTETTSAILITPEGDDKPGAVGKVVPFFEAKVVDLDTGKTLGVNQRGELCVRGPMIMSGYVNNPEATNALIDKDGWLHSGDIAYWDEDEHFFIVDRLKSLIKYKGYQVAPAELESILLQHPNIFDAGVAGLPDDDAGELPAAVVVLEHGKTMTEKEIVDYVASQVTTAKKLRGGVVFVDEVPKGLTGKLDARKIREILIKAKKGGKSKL
Sequence of Large T antigen (P03070 whole entry): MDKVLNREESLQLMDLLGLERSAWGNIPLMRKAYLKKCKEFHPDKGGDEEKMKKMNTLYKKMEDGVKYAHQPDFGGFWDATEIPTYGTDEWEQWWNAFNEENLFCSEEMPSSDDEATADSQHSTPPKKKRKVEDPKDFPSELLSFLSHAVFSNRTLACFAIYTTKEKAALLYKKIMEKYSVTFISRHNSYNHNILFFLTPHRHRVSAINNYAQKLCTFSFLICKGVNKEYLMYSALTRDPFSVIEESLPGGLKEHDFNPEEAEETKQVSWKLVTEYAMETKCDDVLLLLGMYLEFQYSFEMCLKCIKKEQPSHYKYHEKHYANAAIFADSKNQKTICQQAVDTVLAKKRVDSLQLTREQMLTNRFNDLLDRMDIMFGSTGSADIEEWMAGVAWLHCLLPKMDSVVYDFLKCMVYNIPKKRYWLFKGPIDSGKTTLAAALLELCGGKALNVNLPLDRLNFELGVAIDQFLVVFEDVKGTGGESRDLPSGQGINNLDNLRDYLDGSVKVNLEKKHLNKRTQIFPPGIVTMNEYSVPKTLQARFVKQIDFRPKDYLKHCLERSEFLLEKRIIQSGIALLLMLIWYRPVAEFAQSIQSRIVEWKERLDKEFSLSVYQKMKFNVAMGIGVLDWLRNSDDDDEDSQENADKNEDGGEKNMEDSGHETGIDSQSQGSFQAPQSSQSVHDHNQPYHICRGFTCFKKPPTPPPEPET
Sequence of Cytochrome P450 3A4 (P08684 whole entry): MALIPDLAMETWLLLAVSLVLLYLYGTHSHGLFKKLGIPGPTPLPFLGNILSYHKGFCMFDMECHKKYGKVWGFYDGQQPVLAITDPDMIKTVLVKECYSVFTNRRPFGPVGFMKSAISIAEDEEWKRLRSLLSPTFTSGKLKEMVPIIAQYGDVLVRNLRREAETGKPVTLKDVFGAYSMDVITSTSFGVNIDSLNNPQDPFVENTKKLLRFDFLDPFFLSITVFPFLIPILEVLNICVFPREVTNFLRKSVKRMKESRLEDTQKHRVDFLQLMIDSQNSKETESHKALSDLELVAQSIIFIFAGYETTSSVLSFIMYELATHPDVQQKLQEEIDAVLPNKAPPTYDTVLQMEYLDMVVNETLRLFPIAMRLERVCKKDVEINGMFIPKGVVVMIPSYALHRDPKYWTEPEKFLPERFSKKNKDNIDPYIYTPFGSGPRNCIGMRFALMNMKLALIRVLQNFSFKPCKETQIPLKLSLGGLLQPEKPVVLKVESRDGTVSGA
Sequence of FAD-linked sulfhydryl oxidase ALR (P55789 whole entry): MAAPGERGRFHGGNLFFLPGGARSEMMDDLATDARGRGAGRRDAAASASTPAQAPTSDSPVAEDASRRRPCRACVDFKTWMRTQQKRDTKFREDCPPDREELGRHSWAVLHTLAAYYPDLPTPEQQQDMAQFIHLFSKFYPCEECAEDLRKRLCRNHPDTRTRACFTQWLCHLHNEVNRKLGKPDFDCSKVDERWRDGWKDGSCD

CCCCCSc1cc(OC)c(CCNC)cc1OC
AC50 [1]: 17.5 µM (active)

Cc1nc2ccccn2c(=O)c1CCN1CCC(C(=O)c2ccc(F)cc2)CC1 [PIRENPERONE]
AC50 (Cytochrome P450 2D6): 7.94 µM (inconclusive)
AC50 (Cytochrome P450 3A4): 20 µM (inconclusive)

Cc1cc(C)cc(-n2nnc(C(=O)NCc3ccc4c(c3)OCO4)c2N)c1
EC50 [2]: 2.39 µM (active)

CCOC(=O)CC1C(=O)NCCN1c1nc2ccc(C)cn2c(=O)c1/C=C1\SC(=S)N(C(C)CC)C1=O (stereo unspecified)
CC50 [3]: 13.3 µM (active)
IC50 (Aminopeptidase N): 49.8 µM (active)

CCn1cc(C(=O)NCc2cccc(F)c2)c(=O)c2cc(F)c(N3CCN(C(=O)c4ccco4)CC3)cc21
CC50 [3]: > 50 µM (active)
IC50 (cells): 48.9 µM (active)

CCOc1cc(/C=C(/C#N)c2nc3ccccc3[nH]2)ccc1OCc1ccc(C(=O)O)o1
IC50 (Leucine aminopeptidase): 9.14 µM (active)
IC50 (Aminopeptidase N): 60.8 µM (active)

COc1cc(OC)c(NC(=O)CS(=O)(=O)Cc2nc(-c3ccc(C)cc3)oc2C)cc1Cl
EC50 [2]: 5.56 µM (active)

COc1ccc(OC)c(CNC(=O)c2coc(=O)c3ccccc23)c1
CC50 [3]: 37.8 µM (active)
EC50 [4]: > 112 µM (not active)
EC50 [5]: 19.5 µM (active)
IC50 (cells): 29.3 µM (active)

Cc1ccc2[nH]c(-c3cccc(N)c3)cc2c1
CC50 [3]: > 50 µM (active)
AC50 [6]: 13.2 µM (active)
IC50 (cells): 41.4 µM (active)

O=c1c(O)c(-c2cccc(O)c2)oc2ccccc12
AC50 (Cytochrome P450 2D6): 25.1 µM (inconclusive)

OCC1(CCOc2ccccc2)CCN(Cc2cccn2-c2ncccn2)CC1
CC50 [3]: > 50 µM (active)
IC50 (cells): 17.9 µM (active)

O=c1cc(-c2ccc(O)c(O)c2)oc2c(C3O[C@H](CO)[C@@H](O)[C@H](O)[C@H]3O)c(O)cc(O)c12 (stereo partly specified)
IC50 (Large T antigen): 3.15 µM (active)
IC50 (cells): 18 µM (active)

CCn1c(C(=O)N2CCC(C(=O)NCCCSC3CCCCC3)CC2)cc2sccc21
EC50 [4]: 25 µM (active)
EC50 [5]: > 112 µM (not active)
EC50 [2]: 3.51 µM (active)

COC(=O)c1cc(NS(=O)(=O)c2ccc3c(c2)CCC(=O)N3)cc(C(=O)OC)c1
AC50 [7]: 3.3 µM (active)

Cc1c(O)c(=O)ccn1Cc1ccccc1
EC50 [8]: 11.3 µM (active)
EC50 [9]: 3.71 µM (active)
AC50 (Cytochrome P450 2D6): 3.16 µM (inconclusive)
EC50 [10]: > 120 µM (not active)

O=C(Nc1ccccc1Cl)c1cc(S(=O)(=O)N2CCCCC2)ccc1N1CCOCC1
EC50 [2]: 5.14 µM (active)

N#C/C(=C/c1ccc(O)c(O)c1)c1nc2ccccc2[nH]1
IC50 (Large T antigen): 12.3 µM (active)
AC50 [11]: 2.06 µM (active)
AC50 [1]: 2.05 µM (active)

O=C(O)CCN1CC2([N+](=O)[O-])C=CC(=O)C([N+](=O)[O-])(C1)C2CC(=O)c1ccccc1 (stereo unspecified)
AC50 (Caspase-6): 15.7 µM (active)
